This experiment has as its target CXCR7 receptor (Homo sapiens (Human), UniProt P25106). As to the kind of experiment: Serum Binding Analysis: displacement of 125I-labeled SDF-1 from CXCR7 in 100% human serum. As to conditions: 125I SDF-1 displacement in 100% human serum, MCF-7 and/or MDA-MB-435S CXCR7 transfected cells, 3 hrs at 4° C.; read-out: Avg Ser IC50. Here is the method: The compounds were combined with cells expressing the CXCR7 receptor (e.g., MCF cells or cells transfected to express CXCR7) in the presence of the 125 I-labeled SDF-1 chemokine as detailed in Determination of IC50 values. Reagents and Cells (see below). The ability of the compounds to displace the labeled chemokine from the CXCR7 receptor sites at multiple concentrations was then determined with the screening process.
In Table 1, Avg Bind IC50 refers to the Buffer Binding Analysis described below, while Avg Ser IC50 refers to the Serum Binding Analysis described below. All compounds were prepared as described in the Examples above, or by related methods substituting readily available starting materials.
^125I-labeled SDF-1 was purchased from Perkin-Elmer Life Sciences, Inc. (Boston, Mass.). The MCF-7 (adenocarcinoma; mammary gland) cell line was obtained from the American Type Culture Collection (ATCC, Manassas, Va.) or and was cultured in DMEM (Mediatech, Herndon, Va.) supplemented with 10% fetal bovine serum (FBS) (HyClone Logan, Utah) and bovine insulin (0.01 mg/mL) (Sigma. St. Louis, Mo.) at 37° C. in a humidified incubator at a 5% CO2/air mixture. CXCR7 transfected MDA-MB-435S were produced as described below. MDA-MB-435S human breast cancer line, was purchased from ATCC, and cultured in DMEM/10% FBS medium. The complete coding sequence of the gene encoding CXCR7 (a.k.a. CCXCKR2, hRDC1), was isolated from MCF-7 cells using μMACs mRNA isolation kit (Miltenyi Biotec, Auburn, Calif.). DNA contamination was removed by DNase digestion via RNeasy columns (Qiagen, Inc., Valencia, Calif.) and cDNA was generated using GeneAmp RNA PCR Core Kit (Applied Biosystems, Foster City. Calif.). PCR of cDNA samples was performed using Taq PCR Master Mix kit (Qiagen. Inc.) and hRDC1 primers harboring 5′ and 3′ Not I sites (hRDC1F 5′ […]-3, hRDC1R 5′-[…]-3′) Not I digested PCR product was ligated into Not I digested pcDNA3.1(+)(Invitrogen, Carlsbad, Calif.) and screened for orientation and sequence confirmed. Plasmid DNA was then isolated from overnight bacterial cultures by Maxiprep (Qiagen, Inc.). Plasmid DNA (10 μg) was added to MDA-MB-435s cells and cells were electroporated (0.22 kV, 960 uF) via Gene Pulser (Biorad laboratories, Hercules, Calif.). 48 hr post-electroporation, cells were transferred to selection medium (600 ug/ml G418).
In order to more properly assess the binding efficacy of the compounds, radioligand binding assays were carried out in the presence of 100% human serum to more accurately reflect the in vivo environment. […] Target compounds were tested to determine their ability to bind with CXCR7 sites on MCF-7 and/or MDA-MB-435S CXCR7 transfected cells. Efficiency-maxim/zed radioligand binding using filtration protocols as described in Dairaghi D J, et al., HHV8-encoded vMIP-I selectively engages chemokine receptor CCR5. Agonist and antagonist profiles of viral chemokines., J. Biol. Chem. 1999 Jul. 30; 274(31): 21569-74 and Gosling J, et al., Cutting edge: identification of a novel chemokine receptor that binds dendritic cell- and T cell-active chemokines including ELC, SLC, and TECK, J. Immunol. 2000 Mar. 15; 164(6):2851-6 was used.
In these assays, MCF-7 and/or MDA-MB-435S cells were interrogated with the target compounds and the ability of these compounds to displace 125 I radiolabeled SDF-1 was assessed using the protocol described in Dairaghi and Gosling. The target compounds were added to the plate to the indicated concentration followed by addition of cells and radiolabeled chemokine (125I SDF-1), both in the following medium (human AB serum with 10 mM HEPES added to stabilize at pH 7.4). All assays were then incubated for 3 hrs at 4° C. with gentle agitation.
Background: Displacement assays read how much labelled ligand stays bound in the presence of the test substance.
Chain of CXCR7 receptor (P25106 whole entry): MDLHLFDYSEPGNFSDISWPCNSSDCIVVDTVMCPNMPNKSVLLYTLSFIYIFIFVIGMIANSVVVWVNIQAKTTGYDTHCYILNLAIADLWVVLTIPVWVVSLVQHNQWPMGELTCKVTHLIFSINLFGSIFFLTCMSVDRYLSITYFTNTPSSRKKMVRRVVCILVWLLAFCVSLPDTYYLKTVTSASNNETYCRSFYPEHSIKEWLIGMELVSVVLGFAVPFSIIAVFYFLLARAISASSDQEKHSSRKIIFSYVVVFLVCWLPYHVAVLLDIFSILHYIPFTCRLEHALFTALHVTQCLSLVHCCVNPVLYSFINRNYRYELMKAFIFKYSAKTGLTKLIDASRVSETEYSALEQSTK
The term IC50 denotes the concentration at which inhibition is half-maximal. As for `Cc1ccc(-n2cnc(C(=O)N[C@H]3CCN(c4nccn5ccnc45)C3)n2)cc1` [Compound 1.004], the concentration for half-maximal inhibition (IC50) lay within 500 to 2500 nM. In the case of `O=C(N[C@H]1CCN(c2nccn3ccnc23)C1)c1ncn(-c2ccc(F)c(F)c2)n1` [Compound 1.014], the IC50 was no more than 500 nM.

Consider `O=C(N[C@H]1CCN(c2nccn3cccc23)C1)c1cn(-c2ccccc2)nn1` [Compound 1.017], for which the IC50 is no more than 500 nM.

Take `O=C(N[C@H]1CCN(c2nccn3ncnc23)C1)c1ccn(-c2ccc(F)cc2)n1` [Compound 1.067]: the half-maximal inhibitory concentration (IC50) is no more than 500 nM. For `Cc1cn2cccc2c(N2CC[C@H](NC(=O)c3ccn(-c4ccc(F)cc4)n3)C2)n1` [Compound 1.041], the IC50 was no more than 500 nM. Turning to `O=C(NC1(CO)CCN(c2nccn3cccc23)C1)c1ccn(-c2ccc(Cl)cc2)n1` (stereo not shown) [Compound 1.074], the half-inhibitory concentration (IC50) is no more than 500 nM.

Consider `O=C(NC1(CO)CCN(c2nccn3cccc23)C1)c1ncn(-c2ccccc2)n1` (stereo not shown) [Compound 1.051], for which the 50% inhibitory concentration (IC50) is no more than 500 nM. For the molecule `O=C(N[C@H]1CCN(c2nccn3cnnc23)C1)c1csc(-c2ccccc2)n1` [Compound 1.066], the concentration for half-maximal inhibition (IC50) was no more than 500 nM. As to `Cc1ccccc1-n1ccc(C(=O)N[C@H]2CCN(c3nccn4cnnc34)C2)n1` [Compound 1.054], the 50% inhibitory concentration (IC50) is no more than 500 nM. As to `Cc1ccccc1-c1nc(C(=O)N[C@H]2CCN(c3nccn4cccc34)C2)cs1` [Compound 1.046], the half-maximal inhibitory concentration (IC50) was no more than 500 nM. As for `O=C(N[C@H]1CCN(c2nccn3cnnc23)C1)c1coc(-c2ccccc2)n1` [Compound 1.069], the IC50 is no more than 500 nM. For the molecule `O=C(N[C@H]1CCN(c2nccn3cccc23)C1)c1cn(-c2ccccc2)cn1` [Compound 1.039], the half-maximal inhibitory concentration (IC50) is no more than 500 nM. As to `Cc1cn2cccc2c(N2CC[C@H](NC(=O)c3ncn(-c4ccccc4)n3)C2)n1` [Compound 1.040], the IC50 is no more than 500 nM. Consider `Cc1cn2cccc2c(N2CC[C@H](NC(=O)c3coc(-c4ccccc4)n3)C2)n1` [Compound 1.024], for which the IC50 is no more than 500 nM.

As for `O=C(NC1(C(=O)O)CCN(c2nccn3cccc23)C1)c1ccn(-c2ccc(F)cc2)n1` (stereo not shown) [Compound 1.043], the IC50 lay in the range of 2500 to 15000 nM. In the case of `O=C(N[C@H]1CCN(c2nccn3cccc23)C1)c1ncn(-c2ccc(F)cc2)n1` [Compound 1.003] it was no more than 500 nM.

Regarding `O=C(NC1(CO)CCN(c2nccn3cccc23)C1)c1ccn(-c2ccc(F)cc2)n1` (stereo not shown) [Compound 1.073], the IC50 is no more than 500 nM. For the molecule `Cc1cnc(C(=O)N[C@H]2CCN(c3nccn4cccc34)C2)nc1` [Compound 1.063], the IC50 was in the range of 500 to 2500 nM. In the case of `O=C(N[C@H]1CCN(c2nccn3cccc23)C1)c1ncc(C2CC2)cn1` [Compound 1.071], the half-maximal inhibitory concentration (IC50) was no more than 500 nM. In the case of `O=C(N[C@H]1CCN(c2nccn3nccc23)C1)c1ncn(-c2ccccc2)n1` [Compound 1.018], the IC50 was in the range of 2500 to 15000 nM. In the case of `Cc1nc(C(=O)N[C@H]2CCN(c3nccn4ccnc34)C2)nn1-c1ccc(F)cc1` [Compound 1.001], the 50% inhibitory concentration (IC50) is no more than 500 nM. Regarding `CC(C)c1cn2cccc2c(N2CC[C@H](NC(=O)c3ncn(-c4ccc(F)cc4)n3)C2)n1` [Compound 1.007], the IC50 lay in the range of 500 to 2500 nM. Regarding `CC1(O)CCN(c2nc(C(=O)N[C@H]3CCN(c4nccn5cccc45)C3)cs2)CC1` [Compound 1.055], the IC50 is no more than 500 nM. `Cc1cn2cccc2c(N2CC[C@H](NC(=O)c3ccn(-c4ccc(Cl)cc4)n3)C2)n1` [Compound 1.029]: the IC50 is no more than 500 nM.

In the case of `Cc1ccc2nc(C(=O)N[C@H]3CCN(c4nccn5cnnc45)C3)ncc2c1` [Compound 1.044], the concentration for half-maximal inhibition (IC50) was no more than 500 nM.

Turning to `O=C(N[C@H]1CCN(c2nccn3ccnc23)C1)c1ncn(-c2cccc(F)c2)n1` [Compound 1.016], the IC50 is no more than 500 nM. With `O=C(N[C@H]1CCN(c2nccn3cccc23)C1)c1ncc(C2CCCC2)cn1` [Compound 1.028], the concentration for half-maximal inhibition (IC50) is no more than 500 nM.

Turning to `O=C(N[C@H]1CCN(c2nccn3cccc23)C1)c1ncc2cc(Cl)ccc2n1` [Compound 1.053], the IC50 was no more than 500 nM. `O=C(N[C@H]1CCN(c2nccn3cnnc23)C1)c1cn(-c2ccccc2)cn1` [Compound 1.035]: the IC50 is no more than 500 nM. Turning to `O=C(NC1(CO)CCN(c2nccn3cccc23)C1)c1csc(N2CCC(O)CC2)n1` (stereo not shown) [Compound 1.072], the half-maximal inhibitory concentration (IC50) was no more than 500 nM. For `CS(=O)(=O)c1ccc(-n2cnc(C(=O)N[C@H]3CCN(c4nccn5ccnc45)C3)n2)cc1` [Compound 1.005], the IC50 lay in the range of 2500 to 15000 nM.

For the molecule `Cc1cn2ccnc2c(N2CC[C@H](NC(=O)c3cn(-c4ccccc4)cn3)C2)n1` [Compound 1.031], the IC50 is no more than 500 nM. The figure for `CC(C)c1cnc(C(=O)N[C@H]2CCN(c3nccn4ccnc34)C2)nc1` [Compound 1.064] is no more than 500 nM. As for `O=C(N[C@H]1CCN(c2nccn3ccnc23)C1)c1csc(N2CCCC2)n1` [Compound 1.034], the IC50 was no more than 500 nM. Consider `Cc1cn2cccc2c(N2CC[C@H](NC(=O)c3ncn(-c4ccc(Cl)cc4)n3)C2)n1` [Compound 1.022], for which the IC50 is no more than 500 nM.

Regarding `Cc1cn2cccc2c(N2CC[C@H](NC(=O)c3csc(N4CCC(O)CC4)n3)C2)n1` [Compound 1.037], the half-inhibitory concentration (IC50) is no more than 500 nM.

On to `Cc1ccc2nc(C(=O)N[C@H]3CCN(c4nccn5ccnc45)C3)ncc2c1` [Compound 1.048], for which the IC50 is no more than 500 nM. In the case of `Cc1cn2cccc2c(N2CC[C@H](NC(=O)c3cn(-c4ccccc4)cn3)C2)n1` [Compound 1.030] it was no more than 500 nM. As for `NC(=O)C1(NC(=O)c2ccn(-c3ccc(F)cc3)n2)CCN(c2nccn3cccc23)C1` (stereo not shown) [Compound 1.042], the 50% inhibitory concentration (IC50) is no more than 500 nM. `O=C(N[C@H]1CCN(c2nccn3ccnc23)C1)c1ccc(N2CCC(O)CC2)nn1` [Compound 1.011]: the IC50 lay in the range of 2500 to 15000 nM. Turning to `Cc1ccccc1-c1nc(C(=O)N[C@H]2CCN(c3nccn4ccnc34)C2)cs1` [Compound 1.045], the 50% inhibitory concentration (IC50) is no more than 500 nM. With `CC(C)c1cn2cccc2c(N2CC[C@H](NC(=O)c3csc(N4CCC(O)CC4)n3)C2)n1` [Compound 1.009], the IC50 is no more than 500 nM. For `Cc1cn2cccc2c(N2CC[C@H](NC(=O)c3csc(-c4ccccc4)n3)C2)n1` [Compound 1.023], the IC50 is no more than 500 nM. In the case of `CC(C)c1cn2cccc2c(N2CC[C@H](NC(=O)c3ncn(-c4ccccc4)n3)C2)n1` [Compound 1.008], the half-inhibitory concentration (IC50) was in the range of 500 to 2500 nM. In the case of `O=C(NC1CN(c2nccn3cccc23)C[C@@H]1O)c1ccn(-c2ccc(F)cc2)n1` (stereo partly shown) [Compound 1.062], the IC50 was no more than 500 nM. On to `CC1(O)CCN(c2nc(C(=O)N[C@H]3CCN(c4nccn5ccnc45)C3)cs2)CC1` [Compound 1.056], for which the 50% inhibitory concentration (IC50) is 500 to 2500 nM. The figure for `O=C(N[C@H]1CCN(c2nccn3cccc23)C1)c1csc(N2CCCC2)n1` [Compound 1.038] is no more than 500 nM; for `CC(C)c1cnc(C(=O)NC2(CO)CCN(c3nccn4cccc34)C2)nc1` (stereo not shown) [Compound 1.060] it is no more than 500 nM. Regarding `O=C(NC1(CO)CCN(c2nccn3ccnc23)C1)c1csc(N2CCC(O)CC2)n1` (stereo not shown) [Compound 1.058], the IC50 was no more than 500 nM. As for `Cc1cn2ccnc2c(N2CC[C@H](NC(=O)c3ncn(-c4ccccc4)n3)C2)n1` [Compound 1.032], the IC50 was no more than 500 nM. As to `CCc1cn2cccc2c(N2CC[C@H](NC(=O)c3csc(N4CCC(O)CC4)n3)C2)n1` [Compound 1.012], the IC50 was no more than 500 nM.

As to `Cc1ccccc1-n1ccc(C(=O)N[C@H]2CCN(c3nccn4ccnc34)C2)n1` [Compound 1.057], the IC50 is no more than 500 nM.
